The values below come from patent publication US12415939B2, “Nano-adhesive and surface primer compound and use thereof” (The Regents of the University of California, priority 2015, dated 2025).

Series [1] is described as follows: AFM adhesion force runs with silica probe on Z-Cat-C10 coated silicon wafer. The format is physicochemical. On the procedure:
(§1) AFM force runs were measured with and without Z-Cat-C10 on silicon wafer and copper plate, respectively, vs. silicon dioxide probe. Underwater force run was conducted for the surface prepared subsequently after spreading the 5 mM Z-Cat-C10, waiting for 2 min, rinsing thoroughly with degassed DI water thoroughly for 3 times. Dry force run was performed after ˜5 min dry of the surface prepared as for the underwater force run. […] Cantilever spring constant (K) for #=10 μm silica tip on silicon wafer and copper plate with Z-Cat-C10, was 0.1 N m^−1.
The measured adhesion, Fa, force (minimum of the potential well of the F vs. D curves obtained from AFM measurements) is related to the adhesion energy per unit area by Wa=Fa/2πR for rigid surfaces with weak adhesive interactions, and by Wa=Fa/1.5πR (used in this study) for soft deformable surfaces with strong adhesion or cohesion. Since copper surface (RMS˜2 nm) is rougher than silicon wafer (RMS<1 nm), the Wa on copper surface was comparatively weaker than the Wa of silicon wafer. Hydroxide/oxide on copper surface also weakens the adhesion to copper plate compared to just oxide on silicon wafer (see FIGS. 18-23). […]
The adhesion/cohesion energy of the synthetic zwitterionic molecules was investigated in SFA (SurForce LLC, Santa Barbara, CA). Two molecularly smooth freshly cleaved back silvered mica surfaces glued on cylindrical silica discs of radius of curvature, R˜2 cm, were mounted in the SFA and 50 μL of a colloidal dispersion of the synthetic molecules in DI water were injected between the surfaces at different concentrations (C=0.5-5 mM) and the forces between the thin films of the molecules were measured by Multiple Beam Interferometry (MBI). The adhesion forces between Z-Cat-C10 molecules on various surfaces, e.g., silica and copper, were also measured by AFM (MFP-3D, Asylum research, Goleta, CA) in DI water and ambient conditions, respectively, at room temperature. […] Cantilever spring constants were measured for each force run. […]

A short description of series [2]: AFM adhesion force runs with silica probe on Z-Cat-C10 coated copper plate. Type of series: physicochemical. The settings on record: CuO2/Cu(OH)2 and SiO2 surfaces. The protocol: as §1
The measured adhesion, Fa, force (minimum of the potential well of the F vs. D curves obtained from AFM measurements) is related to the adhesion energy per unit area by Wa=Fa/2πR for rigid surfaces with weak adhesive interactions, and by Wa=Fa/1.5πR (used in this study) for soft deformable surfaces with strong adhesion or cohesion. […]
The adhesion/cohesion energy of the synthetic zwitterionic molecules was investigated in SFA (SurForce LLC, Santa Barbara, CA). […] The adhesion forces between Z-Cat-C10 molecules on various surfaces, e.g., silica and copper, were also measured by AFM (MFP-3D, Asylum research, Goleta, CA) in DI water and ambient conditions, respectively, at room temperature. […] Cantilever spring constants were measured for each force run. […]

Series [3] can be described thus: Lap joint bending peel test. The protocol:
Below are the detailed methods following in sequential order in time: • 1) The aqueous Z-Cat-C10 solution was prepared at 100 mg ml^−1 concentration (very turbid solution at room temperature) (FIG. 10A test-tube on the left). • 2) The solution was centrifuged at 3000 rpm (805×g) for 5 min to expedite the process of liquid-liquid phase separation (FIG. 10A test-tubes in the middle and the right). 3) The lower dense coacervate phase was collected in a syringe (FIG. 24A) and injected (spread, ˜10 μl) over a steel plate immersed in water i.e., artificial sea water, aqueous periodate solution, and DI water, respectively (FIG. 24B). • 4) Another steel plate glued onto the steel plate with coacervates on as a lap joint (cross-sectional area 2.54 cm×2.54 cm. • 5) The each lap joint was loaded (250 g) for 12 h of compressive setting (FIG. 24C). • 6) The lap joint bending peel test was conducted underwater for each lap joint prepared in artificial seawater, aqueous periodate solution, and DI water, respectively (FIGS. 24D-24F). • 7) The lap joint bending peel test was conducted dry ambient condition for the lap joint prepared in the periodate solution after 12 h drying in ambient condition Standard Three Point Bending Peel Test
The catecholic zwitterions were inspired by interfacial proteins (mfp-3 and -5) that function as adhesive primers, but not as bulk adhesives. To determine whether Z-Cat-C10 is limited to surface binding or develops measurable bulk cohesion (thickness […]), bulk rupture tests were done using a peeling-by-bending test to better mimic the role that interfacial proteins play in resisting plaque detachment as well as lap-shear bonding test. Lap joints were prepared by gluing two steel plates (SS304) immersed in water using the lower dense coacervate (˜10 μl) (FIGS. 24A-24H). The lap joint (cross-sectional area=2.54 cm×2.54 cm) prepared in artificial seawater or periodate solution, respectively, held a load up to 3 N underwater. […] After 12 h ambient drying, the joint prepared in 1 M periodate solution held much higher load, 11 N: Standard three point bending peel strength of the lap joint (cross-sectional area=2.54 cm×1.27 cm) was measured under ambient dry conditions after drying 12 h. […] Shear bonding strength of the lap joint (cross-sectional area=2.54 cm×2.54 cm) was also measured, 1.1 MPa (standard deviation=0.3, n=4)—similar to Dopa-functionalized polypeptide prepared under ambient dry conditions, 0.9 MPa. […] Nevertheless, the results present that the zwitterionic surfactants were capable of micro-gap-filling as well as nano-gap-filling shown in AFM and SFA, and indicate that they are more versatile than surface primers. The results also attest to the self-assembling ability of Z-Cat-C10 (FIGS. 13A-13C, double bilayer structure).

Series [4] is described as follows: Standard three point bending peel test. Particulars: ambient dry, n=4. On the procedure:
Samples were prepared as described above in “Lap Joint Bending Peel Test” underwater, i.e., aqueous periodate solution, then dried 12 h and 24 h, respectively, in ambient condition. In this standard three point bending peel test, the cross section area was 2.54 cm×1.27 cm.
The standard three point bending peel test (FIG. 24F) was conducted with a Bionix 200 tensile tester (MTS Systems) in ambient conditions. All tests were conducted with a test speed of 5 mm min-1.

The nature of series [5]: AFM images of Z-Cat-C10 films. The format is physicochemical. The settings on record: 5 mM, on silicon wafers and copper. The protocol:
The adhesion/cohesion energy of the synthetic zwitterionic molecules was investigated in SFA (SurForce LLC, Santa Barbara, CA). Two molecularly smooth freshly cleaved back silvered mica surfaces glued on cylindrical silica discs of radius of curvature, R˜2 cm, were mounted in the SFA and 50 μL of a colloidal dispersion of the synthetic molecules in DI water were injected between the surfaces at different concentrations (C=0.5-5 mM) and the forces between the thin films of the molecules were measured by Multiple Beam Interferometry (MBI). The adhesion forces between Z-Cat-C10 molecules on various surfaces, e.g., silica and copper, were also measured by AFM (MFP-3D, Asylum research, Goleta, CA) in DI water and ambient conditions, respectively, at room temperature. AFM probes with a silicon dioxide particle (10, 5, and 1 μm, respectively) on a silicon nitride (SN) cantilever-0.6 N m^−1 were purchased from Novascan Technologies, Inc (Ames, IA). Cantilever spring constants were measured for each force run. Images of Z-Cat-C10 coating on silicon wafer and copper plates were visualized in an AFM.

On to `CN(C)CCOP(=O)(O)OCCCc1ccc(O)c(O)c1` [Z-Cat-C10], for which, in series [1] (SiO2 and SiO2 surfaces), the “dry Wad relative to catecholic polysiloxane” value came out at 50 fold. In addition, the “adhesion Wad after air-drying” value in series [1] (air-dried ~5 min, SiO2 and SiO2 surfaces) is reported as about 175 mJ m^−2; in series [2] (air-dried ~5 min), about 4 mJ m^−2. In addition, the “wet work of adhesion Wad” value in series [1] (underwater, SiO2 and SiO2 interface, 5 mM coating) is about 7.7 mJ m^−2; in series [2] (underwater), about 0.1 mJ m^−2. Also, the “load held by lap joint” value in series [3] (dry ambient conditions (Z-Cat-C10 joint prepared in aqueous periodate)) is at most 1.1 kg; in series [3] (prepared in 1 M periodate, after 12 h ambient drying) it was 11 N; in series [3] (prepared in DI water), 1 N; in series [3] (underwater, prepared in artificial seawater or periodate solution) it was “up to 3 N”. Further, the “three point bending peel strength” value in series [4] turned out to be 20.5 N cm^−1. For the same compound, in series [5], the “film thickness (thin, molecularly smooth films)” value is about 2 nm.
